Assay results published in US20070212355A1 (priority 2005, published 2007).
Values belong to the compound of their own block, whether it stands above or below them.

Columns and labels:
[1] = CD spectra secondary structure of peptides; assay type: physicochemical; conditions: 0.2 mg/mL in PBS, 25° C.
Experimental: The secondary structures of tested peptides were determined using 0.2 mg/mL peptide solutions in PBS. Briefly, CD spectra were collected in triplicate at 1 nm intervals at 25° C. in 0.1 cm path length cell. Secondary structures were determined by fitting of the CD spectra using CD spectra software (CD Spectra Deconvolution software 2.1). All tested peptides contained peaks corresponding to the presence of alpha helices.

[2] = SEC-SLS self-association of peptides in PBS (pH 7.5); assay type: physicochemical
Experimental: The self-association poses a challenge to the development and manufacturing of a homogeneous therapeutic.
Solution molecular weight of the peptides was measured by SEC-SLS. Briefly, peptide solutions in PBS (pH 7.5) at 0.4 to 2.0 mg/mL were fractionated over a Superdex peptide column (Amersham Pharmacia). The eluted peaks were monitored by static light scattering at 690 nm and solution molecular weight was determined at UV 280 nm using the Astra software package (Wyatt Inc.).

mutated human GLP-2R = target: T1, mutated human GLP-2R (Homo sapiens, UniProt O95838, E512D/G511A/L513V); assay: cAMP expression assay in HEK 293E clonal cell line expressing mutated human GLP-2R; assay type: cell-based; conditions: assay set-up, vs control peptide
T1 construct: expressed in transfected cells; host or cells: HEK 293E clonal cell line
T1 sequence (O95838 1-553 G511A/E512D/L513V): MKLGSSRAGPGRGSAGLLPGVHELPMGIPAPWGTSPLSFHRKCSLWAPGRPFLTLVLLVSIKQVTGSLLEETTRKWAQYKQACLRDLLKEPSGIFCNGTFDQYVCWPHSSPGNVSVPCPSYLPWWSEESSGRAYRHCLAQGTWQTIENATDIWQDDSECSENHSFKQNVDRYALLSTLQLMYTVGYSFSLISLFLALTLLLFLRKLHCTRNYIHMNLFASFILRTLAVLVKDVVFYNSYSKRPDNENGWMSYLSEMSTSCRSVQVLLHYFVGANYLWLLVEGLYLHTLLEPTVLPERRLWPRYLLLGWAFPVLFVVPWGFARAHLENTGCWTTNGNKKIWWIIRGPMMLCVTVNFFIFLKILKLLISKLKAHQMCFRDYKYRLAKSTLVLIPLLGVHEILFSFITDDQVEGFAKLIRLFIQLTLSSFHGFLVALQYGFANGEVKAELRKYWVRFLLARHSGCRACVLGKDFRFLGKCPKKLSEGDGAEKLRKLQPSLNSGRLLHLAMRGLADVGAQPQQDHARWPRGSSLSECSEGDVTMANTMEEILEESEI
From the text: To achieve this goal, a clonal cell line expressing a mutated human GLP-2R was generated by transfecting HEK 293E cells. The mutated human GLP-2R differs from the wild-type human GLP-2R (SEQ ID NO: 35) at three amino acid positions within the C-terminal intracellular region (SEQ ID NO: 36).
The cAMP expression was quantitated using the cAMP Direct Screen System (Cat. No. CSD 200, Applied Biosystems, Bedford, Mass.).
This assay was based on the cAMP Direct Screen System from Applied Biosystems utilizing a cell line expressing mutated huGLP-2R in HEK 293E cells. Peptide at concentrations ranging from 0.01 nM to 1.0 uM in PBS with 0.5% BSA was added to ˜50,000 cells suspended in 96-well plates. After a 30-minute incubation at 37° C., Lysis Buffer followed by luminescence reagents (Applied Biosystems) was added according to the manufacturers' procedures (Applied Biosystems Luminescence protocol: cAMP-Screen Direct System). Luminescence was quantitated using a TopCount liquid scintillation analyzer (PerkinElmer), and data was processed using Softmax software (Molecular Devices Corporation).

[3] = humans; cited from earlier work
[4] = Helical propensity analysis using TFE (CD at 222 nm); assay type: physicochemical; conditions: 0.2 mg/mL in PBS (pH 7.5), MRE at 222 nm
Experimental: In addition, trifluoroethanol (TFE) is known to induce helix formation in peptides (Soennichsen et al., Biochemistry 31: 8791 (1992)). Accordingly, helical propensity analysis using TFE was performed. Briefly, tested peptides were diluted to 0.2 mg/mL in PBS (pH 7.5) containing 0, 1, 5, 15, 33 or 50% TFE. CD spectra were collected and CD plots were generated after data averaging, buffer subtraction and curve smoothing. Helical propensity values were obtained from mean residue ellipticity (MRE) at 222 nm versus % TFE plots. The concentration of TFE that effected a 50% transformation of the CD spectrum at 222 nm was used as a measure of helical propensity.

[5] = Pharmacokinetics in cynomolgus monkeys, TRF assay; assay type: in vivo; conditions: 1 mg/kg intravenously
From the text: (§1) A time resolved fluorescence (TRF) assay was used to measure active mimetibody. Active mimetibody reflects the intact N-terminus of the peptide still attached to the Fc region of the mimetibody.

mice [6] = assay: Upper gastrointestinal transit, FITC-dextran method, normal mice; assay type: in vivo; conditions: for upper gastrointestinal transit (FITC-dextran): single 4 mg/kg dose 4 days prior, FIG. 4, 4 mg/kg
Experimental: On the day of study, upper gastrointestinal transit was measured using the FITC-dextran method. This method provides both, a measure of gastrointestinal transit and a readout of the pattern of distribution of the test meal along the gastrointestinal tract. Mice were fed a test meal of […] of FITC-dextran solution (5 mg/ml of 70,000 molecular weight dextran conjugated to fluorescein-isothiocyanate in 0.5% methylcellulose/deionized water) administered intragastrically by an 18 gauge curved feeding tube. Following oral administration of the FITC-dextran test meal, mice were returned to their home cages. It was shown that a 30 min test period was the optimum duration for detecting accelerated transit, while a 45 min test period was optimum for detecting delayed transit. Following the appropriate test period, mice were sacrificed by carbon dioxide exposure. The entire gastrointestinal tract from the lower esophageal sphincter to the terminal colon was removed. The bowel segments were opened along the mesenteric border. The tissue and luminal contents of the stomach, 10 equal segments of small intestine, the cecum, and 3 equal segments of colon were placed in individual Eppendorf tubes containing 1 ml of PBS. The tissue was vigorously mixed on a table-top vortex, and solid materials were pelleted by centrifugation. Aliquots of the cleared supernatant were read in duplicate on a 96-well fluorescence plate reader to quantify the magnitude of the fluorescent signal in each segment of bowel. These values were used to calculate the Geometric Center (GC), which is defined as the weighted average distribution of the fluorescent signal along the gastrointestinal tract: GC=Σ(% of total fluorescent signal per segment×segment number)/100. Higher values represent faster rates of transit on scale of 1 to 15. […] The mimetibody-induced shift in the distribution pattern of FITC-dextran is shown in the upper panel. […] The GC is calculated in the lower panel for statistical comparison.

[7] = SEC-SLS analysis of mimetibodies (monomer/dimer); assay type: physicochemical; conditions: purified from HEK 293E/HEK 293 expression
mice [8] = assay: Pharmacodynamics: dosing-regimen study, intestinal weights, 11 days; assay type: in vivo
From the text: (§2) Specifically, 4 cm sections were harvested: (1) immediately distal to the pylorus (duodenum), (2) starting 2 cm distal of the ligament of Treitz (jejunum), and (3) immediately proximal to the cecum (ileum). The remaining small intestine from ˜6 cm distal of the ligament of Treitz to 4 cm proximal to the cecum was used to prepare mucosal scrapings. From the proximal and distal ends of the remnant, an equal distance was removed until a 15 cm section remained, the remnant was cut longitudinally, rinsed, and the mucosal layer was removed using the short end of a glass microscope slide. The wet weight of the intact intestinal segments and mucosa was measured.
The duration of the study was 11 days and tissue was processed as described in Example 4.

[9] = Pharmacokinetics in CD1 mice, TRF assay of active mimetibody; assay type: in vivo
From the text: Blood was collected at different time points into citrate buffer containing protease inhibitors to minimize the possibility of ex vivo degradation and plasma was separated by centrifugation.
as §1

CD1 mice = assay: Mucosal wet weight of small intestine after 10 daily subcutaneous injections; assay type: in vivo
From the text: Afterwards, the mice were euthanized and the small intestines were removed, flushed with saline, and processed as described below.
as §2

Helix (percentage of helical structure) [1]: 19.6% | Random coil (percentage) [1]: 37.9% | self-association state ([2]; 0.4 mg/mL): monomer | SEC-SLS elution / self-association state ([2]; 1 mg/ml): overlapping dimer and monomer peaks | proportion of monomers ([2]; 2 mg/mL): about 20% | proportion of reversibly self-associated dimer ([2]; 2 mg/mL): about 80% | stimulation of cAMP expression (mutated human GLP-2R): stimulated cAMP expression | TFE required for helical transformation (helical propensity) [4]: ~16 % TFE
Compound: CC[C@H](C)[C@H](NC(=O)[C@H](Cc1ccccc1)NC(=O)[C@H](CC(=O)O)NC(=O)[C@H](CCCNC(=N)N)NC(=O)[C@H](C)NC(=O)[C@H](C)NC(=O)[C@H](CC(C)C)NC(=O)[C@H](CC(N)=O)NC(=O)[C@H](CC(=O)O)NC(=O)[C@H](CC(C)C)NC(=O)[C@@H](NC(=O)[C@@H](NC(=O)[C@H](CC(N)=O)NC(=O)[C@H](CCSC)NC(=O)[C@H](CCC(=O)O)NC(=O)[C@H](CC(=O)O)NC(=O)[C@H](CO)NC(=O)[C@H](Cc1ccccc1)NC(=O)[C@H](CO)NC(=O)CNC(=O)[C@H](CC(=O)O)NC(=O)[C@H](C)NC(=O)[C@@H](N)Cc1c[nH]cn1)[C@@H](C)O)[C@@H](C)CC)C(=O)N[C@@H](CC(N)=O)C(=O)N[C@@H](Cc1c[nH]c2ccccc12)C(=O)N[C@@H](CC(C)C)C(=O)N[C@H](C(=O)N[C@@H](CCC(N)=O)C(=O)N[C@H](C(=O)N[C@@H](CCCCN)C(=O)N[C@H](C(=O)N[C@H](C(=O)N[C@@H](CC(=O)O)C(=O)O)[C@@H](C)O)[C@@H](C)CC)[C@@H](C)O)[C@@H](C)CC [SEQ ID NO: 1]
reported half-life [3]: 7.2 ± 2 min

Compound: SEQ ID NO: 5: A2G GLP-2 IgG4 mimetibody; core HGDGSFSDEMNTILDNLAARDFINWLIQTKITDGSGGGSGTLVTVSSESKYGPPCPPCP
calculated half-life [5]: 115 h | upper gastrointestinal transit (FITC-dextran) (mice [6]; listed as A2G GLP-2 mimetibody): significant acceleration of intestinal transit | upper gastrointestinal transit (FITC-dextran) (mice [6]; listed as GLP-2 mimetibody): acceleration of upper gastrointestinal transit | Geometric Center (GC) of FITC-dextran (mice [6]; single injection 4 days prior, 30 minute test, scale 1 to 15, normal mice GC=6): 7.5 | SEC-SLS association state of mimetibody [7]: dimer | mucosal weight difference to control mimetibody (mice [8]; 4 mg/kg every day or every other day, 11 day study, compared with once per week): more pronounced | mucosal weight compared to control mimetibody (mice [8]; 4 mg/kg once per week, 11 day study): significantly increased mucosal weight | duodenum and jejunum section wet weight over control mimetibody (mice [8]; 4 mg/kg, all regimens except for the single dose experiment): significant increase in weight | calculated half-life ([9]; CD1 mice, 3 mg/kg intravenously or subcutaneously, TRF): 26.5 h | half-life relative to GLP-2 peptide ([9]; mimetibody in mice vs reported GLP-2 peptide in humans): more than 200 fold | increase in mucosal wet weight vs control mimetibody (CD1 mice; 0.8 mg/kg (0.26 nmole) daily s.c. 10 days, p<0.0001): statistically significant | increase in mucosal wet weight vs control mimetibody (CD1 mice; 8 mg/kg (2.6 nmole) daily s.c. 10 days, p<0.0004): statistically significant | mucosal wet weight (15 cm segment between jejunum and ileum), dose response (CD1 mice; daily s.c. 10 days, female CD1 mice, FIG. 2): dose dependent increase | effective in vivo dose lower than that of A2G GLP-2 peptide (molar basis) (CD1 mice; mucosal weight model): 50 fold
